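Five compound concentrations were applied to cells in 96-well plates for 48 hours; endpoints were derived by simple linear interpolation of the resulting dose-response curve. At the GI50, growth is halved. TGI marks complete inhibition of growth.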
What was measured:
Test in all cases: NCI anticancer screen, dose series, 48 h
U251 CNS = test system: U251 CNS
LOX IMVI melanoma = test system: LOX IMVI melanoma
NCI-H226 lung = test system: NCI-H226 lung
T-47D breast = test system: T-47D breast
OVCAR-3 ovarian = test system: OVCAR-3 ovarian
MDA-MB-468 breast = test system: MDA-MB-468 breast
RPMI-8226 leukemia = test system: RPMI-8226 leukemia
MCF7 breast = test system: MCF7 breast
UACC-62 melanoma = test system: UACC-62 melanoma
IGROV1 ovarian = test system: IGROV1 ovarian
CAKI-1 renal = test system: CAKI-1 renal
HCT-15 colon = test system: HCT-15 colon
HCT-116 colon = test system: HCT-116 colon
SW-620 colon = test system: SW-620 colon
UACC-257 melanoma = test system: UACC-257 melanoma
OVCAR-5 ovarian = test system: OVCAR-5 ovarian
DU-145 prostate = test system: DU-145 prostate
EKVX NSCLC = test system: EKVX NSCLC
NCI/ADR-RES ovarian = test system: NCI/ADR-RES ovarian
A498 renal = test system: A498 renal
ACHN renal = test system: ACHN renal
SK-OV-3 ovarian = test system: SK-OV-3 ovarian
NCI-H23 lung = test system: NCI-H23 lung
MALME-3M melanoma = test system: MALME-3M melanoma
OVCAR-8 ovarian = test system: OVCAR-8 ovarian
OVCAR-4 ovarian = test system: OVCAR-4 ovarian
786-0 renal = test system: 786-0 renal
MDA-MB-435 = test system: MDA-MB-435
SK-MEL-28 melanoma = test system: SK-MEL-28 melanoma
HOP-92 NSCLC = test system: HOP-92 NSCLC

`COc1ccc(C(=O)/C=C/c2cc(C(F)(F)F)cc(C(F)(F)F)c2)cc1S(N)(=O)=O` showed a TGI (U251 CNS) of 2620 nM, a GI50 (LOX IMVI melanoma) of 573 nM and a TGI (LOX IMVI melanoma) of 1780 nM. It also gave a GI50 (NCI-H226 lung) of 2140 nM, a TGI (NCI-H226 lung) of 4.59 µM and a GI50 (T-47D breast) of 1690 nM. It also gave a TGI (T-47D breast) of 3.55 µM, a GI50 (OVCAR-3 ovarian) of 1560 nM and a TGI (OVCAR-3 ovarian) of 3.31 µM. It also gave a GI50 (MDA-MB-468 breast) of 1540 nM, a TGI (MDA-MB-468 breast) of 2910 nM and a GI50 (RPMI-8226 leukemia) of 558 nM. For the same molecule, the TGI (RPMI-8226 leukemia) was greater than 100 µM, the GI50 (MCF7 breast) was 439 nM and the TGI (MCF7 breast) was 1680 nM. For the same molecule, the GI50 (UACC-62 melanoma) was 1510 nM, the TGI (UACC-62 melanoma) was 3 µM and the GI50 (IGROV1 ovarian) was 1740 nM. The TGI (IGROV1 ovarian) was 3.32 µM, the GI50 (CAKI-1 renal) was 1580 nM and the TGI (CAKI-1 renal) was 3.36 µM. It also gave a GI50 (HCT-15 colon) of 893 nM, a TGI (HCT-15 colon) of 2380 nM and a GI50 (HCT-116 colon) of 655 nM. It also gave a TGI (HCT-116 colon) of 2300 nM, a GI50 (SW-620 colon) of 1030 nM and a TGI (SW-620 colon) of 2440 nM. For the same molecule, the GI50 (UACC-257 melanoma) was 1510 nM, the TGI (UACC-257 melanoma) was 3.18 µM and the GI50 (OVCAR-5 ovarian) was 1840 nM. The TGI (OVCAR-5 ovarian) was 3.36 µM, the GI50 (DU-145 prostate) was 2050 nM and the TGI (DU-145 prostate) was 4.83 µM. The GI50 (EKVX NSCLC) was 1580 nM, the TGI (EKVX NSCLC) was 2970 nM and the GI50 (NCI/ADR-RES ovarian) was 1510 nM. The TGI (NCI/ADR-RES ovarian) was 3.72 µM, the GI50 (A498 renal) was 16.9 µM and the TGI (A498 renal) was 30.5 µM. For the same molecule, the GI50 (ACHN renal) was 1540 nM, the TGI (ACHN renal) was 2910 nM and the GI50 (SK-OV-3 ovarian) was 3.65 µM. For the same molecule, the TGI (SK-OV-3 ovarian) was 16.3 µM, the GI50 (NCI-H23 lung) was 1550 nM and the TGI (NCI-H23 lung) was 3.01 µM. The GI50 (MALME-3M melanoma) was 1810 nM, the TGI (MALME-3M melanoma) was 3.33 µM and the GI50 (OVCAR-8 ovarian) was 1490 nM. For the same molecule, the TGI (OVCAR-8 ovarian) was 3.87 µM, the GI50 (OVCAR-4 ovarian) was 1850 nM and the TGI (OVCAR-4 ovarian) was 4.44 µM. For the same molecule, the GI50 (786-0 renal) was 1640 nM, the TGI (786-0 renal) was 3.32 µM and the GI50 (MDA-MB-435) was 1350 nM. For the same molecule, the TGI (MDA-MB-435) was 2970 nM, the GI50 (SK-MEL-28 melanoma) was 1670 nM and the TGI (SK-MEL-28 melanoma) was 3.07 µM. It also gave a GI50 (HOP-92 NSCLC) of 1980 nM and a TGI (HOP-92 NSCLC) of 5.8 µM.
